From ChEMBL document CHEMBL1201862, “PubChem BioAssay data set” (2004)
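Test compounds were applied to cells in 96-well plates for 48 hours at 5 doses. At the GI50, growth is halved.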 Calls of active or inactive are those of the source. No stated cut-off is given here; in the data, active = GI50 up to about 1.1 µM and inactive = higher.

Tests used:
Experiment in all cases: inhibition of tumour cell growth, NCI panel, 48 h
786-0 = system: 786-0
A549 = system: A549
ACHN = system: ACHN
BT-549 = system: BT-549
CCRF-CEM = system: CCRF-CEM
COLO 205 = system: COLO 205
DU-145 = system: DU-145
HCC 2998 = system: HCC 2998
HCT-15 = system: HCT-15
HL-60 = system: HL-60
HOP-92 = system: HOP-92
HT-29 = system: HT-29
Hs-578T = system: Hs-578T
IGROV-1 = system: IGROV-1
K562 = system: K562
KM12 = system: KM12
LOX IMVI = system: LOX IMVI
M14 = system: M14
MCF7 = system: MCF7
MDA-MB-231 = system: MDA-MB-231
MDA-MB-435 = system: MDA-MB-435
MDA-N = system: MDA-N
MOLT-4 = system: MOLT-4
Malme-3M = system: Malme-3M
NCI-H226 = system: NCI-H226
NCI-H23 = system: NCI-H23
NCI-H460 = system: NCI-H460
NCI-H522 = system: NCI-H522
OVCAR-3 = system: OVCAR-3
OVCAR-4 = system: OVCAR-4
OVCAR-5 = system: OVCAR-5
OVCAR-8 = system: OVCAR-8
RPMI-8226 = system: RPMI-8226
RXF 393 = system: RXF 393
SF-268 = system: SF-268
SF-295 = system: SF-295
SK-MEL-28 = system: SK-MEL-28
SK-MEL-2 = system: SK-MEL-2
SK-MEL-5 = system: SK-MEL-5
SN12C = system: SN12C
SNB-19 = system: SNB-19
SNB-75 = system: SNB-75
SR = system: SR
SW-620 = system: SW-620
T47D = system: T47D
TK-10 = system: TK-10
U-251 = system: U-251
UACC-257 = system: UACC-257
UACC-62 = system: UACC-62
UO-31 = system: UO-31
EKVX = system: EKVX
HCT-116 = system: HCT-116
HOP-62 = system: HOP-62
PC-3 = system: PC-3
SF-539 = system: SF-539
SK-OV-3 = system: SK-OV-3

With `CN1CCN(C(=S)N(C(=O)c2ccc(Cl)cc2)C2CCCCC2)CC1` the GI50 (786-0) was > 100 µM (inactive), the GI50 (A549) was > 100 µM (inactive) and the GI50 (ACHN) was > 100 µM (inactive). For the same compound, the GI50 (BT-549) was > 100 µM (inactive), the GI50 (CCRF-CEM) was 72.4 µM (inactive) and the GI50 (COLO 205) was > 100 µM (inactive). The GI50 (DU-145) was > 100 µM (inactive), the GI50 (HCC 2998) was > 100 µM (inactive) and the GI50 (HCT-15) was greater than 100 µM. For the same compound, the GI50 (HL-60) was 61.7 µM (inactive), the GI50 (HOP-92) was > 100 µM (inactive) and the GI50 (HT-29) was > 100 µM (inactive). For the same compound, the GI50 (Hs-578T) was 27.4 µM (inactive), the GI50 (IGROV-1) was > 100 µM (inactive) and the GI50 (K562) was 51.3 µM (inactive). The GI50 (KM12) was > 100 µM (inactive), the GI50 (LOX IMVI) was > 100 µM (inactive) and the GI50 (M14) was > 100 µM (inactive). The GI50 (MCF7) was > 100 µM (inactive), the GI50 (MDA-MB-231) was > 100 µM (inactive) and the GI50 (MDA-MB-435) was > 100 µM (inactive). The GI50 (MDA-N) was > 100 µM (inactive), the GI50 (MOLT-4) was 63.1 µM (inactive) and the GI50 (Malme-3M) was > 100 µM (inactive). For the same compound, the GI50 (NCI-H226) was > 100 µM (inactive), the GI50 (NCI-H23) was > 100 µM (inactive) and the GI50 (NCI-H460) was > 100 µM (inactive). For the same compound, the GI50 (NCI-H522) was > 100 µM (inactive), the GI50 (OVCAR-3) was > 100 µM (inactive) and the GI50 (OVCAR-4) was > 100 µM (inactive). For the same compound, the GI50 (OVCAR-5) was > 100 µM (inactive), the GI50 (OVCAR-8) was > 100 µM (inactive) and the GI50 (RPMI-8226) was > 100 µM (inactive). The GI50 (RXF 393) was > 100 µM (inactive), the GI50 (SF-268) was > 100 µM (inactive) and the GI50 (SF-295) was > 100 µM (inactive). The GI50 (SK-MEL-28) was > 100 µM (inactive), the GI50 (SK-MEL-2) was > 100 µM (inactive) and the GI50 (SK-MEL-5) was > 100 µM (inactive). For the same compound, the GI50 (SN12C) was > 100 µM (inactive), the GI50 (SNB-19) was > 100 µM (inactive) and the GI50 (SNB-75) was 20 µM (inactive). For the same compound, the GI50 (SR) was 58.9 µM (inactive), the GI50 (SW-620) was > 100 µM (inactive) and the GI50 (T47D) was > 100 µM (inactive). The GI50 (TK-10) was > 100 µM (inactive), the GI50 (U-251) was > 100 µM (inactive) and the GI50 (UACC-257) was > 100 µM (inactive). For the same compound, the GI50 (UACC-62) was > 100 µM (inactive) and the GI50 (UO-31) was > 100 µM (inactive).
With `O=c1n(CCO)nc2n1CCCN2` the GI50 (786-0) was > 100 µM (inactive), the GI50 (A549) was > 100 µM (inactive) and the GI50 (ACHN) was > 100 µM (inactive). For the same compound, the GI50 (BT-549) was > 100 µM (inactive), the GI50 (CCRF-CEM) was > 100 µM (inactive) and the GI50 (COLO 205) was > 100 µM (inactive). The GI50 (DU-145) was > 100 µM (inactive), the GI50 (EKVX) was > 100 µM (inactive) and the GI50 (HCC 2998) was > 100 µM (inactive). The GI50 (HCT-116) was > 100 µM (inactive), the GI50 (HCT-15) was greater than 100 µM and the GI50 (HL-60) was > 100 µM (inactive). For the same compound, the GI50 (HOP-62) was > 100 µM (inactive), the GI50 (HOP-92) was > 100 µM (inactive) and the GI50 (HT-29) was > 100 µM (inactive). The GI50 (Hs-578T) was > 100 µM (inactive), the GI50 (IGROV-1) was > 100 µM (inactive) and the GI50 (K562) was > 100 µM (inactive). For the same compound, the GI50 (KM12) was > 100 µM (inactive), the GI50 (LOX IMVI) was > 100 µM (inactive) and the GI50 (M14) was > 100 µM (inactive). The GI50 (MCF7) was > 100 µM (inactive), the GI50 (MDA-MB-231) was > 100 µM (inactive) and the GI50 (MDA-MB-435) was > 100 µM (inactive). For the same compound, the GI50 (MDA-N) was > 100 µM (inactive), the GI50 (MOLT-4) was > 100 µM (inactive) and the GI50 (Malme-3M) was > 100 µM (inactive). The GI50 (NCI-H226) was > 100 µM (inactive), the GI50 (NCI-H23) was > 100 µM (inactive) and the GI50 (NCI-H460) was > 100 µM (inactive). For the same compound, the GI50 (OVCAR-3) was > 100 µM (inactive), the GI50 (OVCAR-4) was > 100 µM (inactive) and the GI50 (OVCAR-5) was > 100 µM (inactive). The GI50 (OVCAR-8) was > 100 µM (inactive), the GI50 (PC-3) was > 100 µM (inactive) and the GI50 (RPMI-8226) was > 100 µM (inactive). The GI50 (RXF 393) was > 100 µM (inactive), the GI50 (SF-268) was > 100 µM (inactive) and the GI50 (SF-295) was > 100 µM (inactive). For the same compound, the GI50 (SF-539) was > 100 µM (inactive), the GI50 (SK-MEL-28) was > 100 µM (inactive) and the GI50 (SK-MEL-2) was > 100 µM (inactive). For the same compound, the GI50 (SK-MEL-5) was > 100 µM (inactive), the GI50 (SK-OV-3) was > 100 µM (inactive) and the GI50 (SN12C) was > 100 µM (inactive). The GI50 (SNB-19) was > 100 µM (inactive), the GI50 (SNB-75) was > 100 µM (inactive) and the GI50 (SR) was > 100 µM (inactive). For the same compound, the GI50 (SW-620) was > 100 µM (inactive), the GI50 (T47D) was > 100 µM (inactive) and the GI50 (TK-10) was > 100 µM (inactive). The GI50 (U-251) was > 100 µM (inactive), the GI50 (UACC-62) was > 100 µM (inactive) and the GI50 (UO-31) was > 100 µM (inactive).
